Source: paper PMC4756635 (Bioorganic & medicinal chemistry letters, 2016)
Entries after “also recorded” stand apart in the source; their conditions may differ.

Legend:
[1] = Pharmacokinetics and oral bioavailability in C3H mice, plasma levels by LC-MS; assay type: in vivo; settings: for bioavailability: po, 10 mg/kg; for Plasma drug concentrations at higher PO dose: mice, PO 100 mg/kg in suspension, data not shown
HIV-1NL4-3 = test: Nef-dependent HIV-1 replication in U87MG/CD4/CXCR4 cells, p24 Gag ELISA; assay type: cell-based; settings: 3 μM, 4 days
HIV-1 Nef = HIV-1 Nef (Human immunodeficiency virus type 1 group M subtype B, UniProt P03406); test: SPR direct binding to immobilized recombinant Nef
[2] = C3H, mouse, plasma, iv, 2 mg/kg

SMILES	half-life [1, 2] [h]	AUC(0-inf) [1, 2] [ng·h/mL]	Cmax [1, 2] [ng/mL]	Vd [1, 2] [L/kg]	clearance [1, 2] [mL/min/kg]	bioavailability ([1]; C3H, mouse, plasma) [%]	Plasma drug concentrations at higher PO dose [1]	Effect on Nef-dependent enhancement of HIV-1 replication (HIV-1NL4-3)	Reduction of binding affinity for Nef relative to B9 parent compound (HIV-1 Nef) [fold]	Nef binding by SPR (in words) (HIV-1 Nef)	AUC(0-t) [1, 2] [ng·h/mL]
NC(=S)n1nc(-c2ccc([N+](=O)[O-])cc2)c(/N=N/c2cccc(Cl)c2)c1O [Compound 1]	> 2										
NC(=S)n1nc(-c2ccc([N+](=O)[O-])cc2)c(CCc2cccc(Cl)c2)c1O [Compound 2]	2.7	2470	11200	0.91	15.5	53 to 85	proportionally higher plasma drug concentrations	suppressed Nef-dependent enhancement of HIV-1 replication to the same extent as B9	2		
O=[N+]([O-])c1ccc(-c2n[nH]c(O)c2CCc2cccc(Cl)c2)cc1 [Compound 3]								no activity		dramatic loss of Nef binding; also recorded: fail to bind to Nef	
NC(=S)n1nc(-c2ccc([N+](=O)[O-])cc2)c(Cc2cccc(Cl)c2)c1O [Compound 4]		3890	3880	0.95	11.2	57 to 100	proportionally higher plasma drug concentrations	suppressed Nef-dependent enhancement of HIV-1 replication to the same extent as B9			3770
O=[N+]([O-])c1ccc(-c2n[nH]c(O)c2Cc2cccc(Cl)c2)cc1 [Compound 5]								no activity		dramatic loss of Nef binding; also recorded: fail to bind to Nef	
